Reference: PubChem BioAssay (NCI)
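Assay format: 96-well plates, 48-hour exposure. TGI denotes the concentration required for complete inhibition of growth.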

What was measured:
Assay in all cases: DTP human tumour cell line panel, 48 h
786-0 renal = tested on: 786-0 renal
A498 renal = tested on: A498 renal
A549 NSCLC = tested on: A549 NSCLC
ACHN renal = tested on: ACHN renal
BT-549 breast = tested on: BT-549 breast
CAKI-1 renal = tested on: CAKI-1 renal
CCRF-CEM leukemia = tested on: CCRF-CEM leukemia
COLO 205 colon = tested on: COLO 205 colon
DU-145 prostate = tested on: DU-145 prostate
EKVX NSCLC = tested on: EKVX NSCLC
HCT-116 colon = tested on: HCT-116 colon
HCT-15 colon = tested on: HCT-15 colon
HL-60(TB) leukemia = tested on: HL-60(TB) leukemia
HOP-62 NSCLC = tested on: HOP-62 NSCLC
HOP-92 NSCLC = tested on: HOP-92 NSCLC
HS 578T breast = tested on: HS 578T breast
HT29 colon = tested on: HT29 colon
IGROV1 ovarian = tested on: IGROV1 ovarian
K-562 leukemia = tested on: K-562 leukemia
KM12 colon = tested on: KM12 colon
LOX IMVI melanoma = tested on: LOX IMVI melanoma
M14 melanoma = tested on: M14 melanoma
MALME-3M melanoma = tested on: MALME-3M melanoma
MCF7 breast = tested on: MCF7 breast
MDA-MB-231 breast = tested on: MDA-MB-231 breast
MDA-MB-435 = tested on: MDA-MB-435
MDA-N = tested on: MDA-N
MOLT-4 leukemia = tested on: MOLT-4 leukemia
NCI-H226 lung = tested on: NCI-H226 lung
NCI-H23 lung = tested on: NCI-H23 lung
NCI-H460 lung = tested on: NCI-H460 lung
NCI-H522 lung = tested on: NCI-H522 lung
NCI/ADR-RES ovarian = tested on: NCI/ADR-RES ovarian
OVCAR-3 ovarian = tested on: OVCAR-3 ovarian
OVCAR-4 ovarian = tested on: OVCAR-4 ovarian
OVCAR-5 ovarian = tested on: OVCAR-5 ovarian
OVCAR-8 ovarian = tested on: OVCAR-8 ovarian
PC-3 prostate = tested on: PC-3 prostate
RPMI-8226 leukemia = tested on: RPMI-8226 leukemia
RXF 393 renal = tested on: RXF 393 renal
SF-268 CNS = tested on: SF-268 CNS
SF-295 CNS = tested on: SF-295 CNS
SF-539 CNS = tested on: SF-539 CNS
SK-MEL-2 melanoma = tested on: SK-MEL-2 melanoma
SK-MEL-28 melanoma = tested on: SK-MEL-28 melanoma
SK-MEL-5 melanoma = tested on: SK-MEL-5 melanoma
SK-OV-3 ovarian = tested on: SK-OV-3 ovarian
SN12C renal = tested on: SN12C renal
SNB-19 CNS = tested on: SNB-19 CNS
SNB-75 CNS = tested on: SNB-75 CNS
SR leukemia = tested on: SR leukemia
SW-620 colon = tested on: SW-620 colon
T-47D breast = tested on: T-47D breast
TK-10 renal = tested on: TK-10 renal
U251 CNS = tested on: U251 CNS
UACC-257 melanoma = tested on: UACC-257 melanoma
UACC-62 melanoma = tested on: UACC-62 melanoma
UO-31 renal = tested on: UO-31 renal
HCC-2998 colon = tested on: HCC-2998 colon

`Nc1c(S(=O)(=O)O)cc(Nc2cccc(S(N)(=O)=O)c2)c2c1C(=O)c1ccccc1C2=O` gave a TGI (786-0 renal) of over 100 µM, a TGI (A498 renal) of over 100 µM and a TGI (A549 NSCLC) of over 100 µM. For the same molecule, the TGI (ACHN renal) was over 100 µM, the TGI (BT-549 breast) was over 100 µM and the TGI (CAKI-1 renal) was over 100 µM. It also gave a TGI (CCRF-CEM leukemia) of over 100 µM, a TGI (COLO 205 colon) of over 100 µM and a TGI (DU-145 prostate) of over 100 µM. It also gave a TGI (EKVX NSCLC) of over 100 µM, a TGI (HCT-116 colon) of over 100 µM and a TGI (HCT-15 colon) of over 100 µM. The TGI (HL-60(TB) leukemia) was over 100 µM, the TGI (HOP-62 NSCLC) was 71.9 µM and the TGI (HOP-92 NSCLC) was over 100 µM. For the same molecule, the TGI (HS 578T breast) was 69.9 µM, the TGI (HT29 colon) was over 100 µM and the TGI (IGROV1 ovarian) was over 100 µM. The TGI (K-562 leukemia) was over 100 µM, the TGI (KM12 colon) was over 100 µM and the TGI (LOX IMVI melanoma) was over 100 µM. The TGI (M14 melanoma) was over 100 µM, the TGI (MALME-3M melanoma) was 87.9 µM and the TGI (MCF7 breast) was over 100 µM. It also gave a TGI (MDA-MB-231 breast) of over 100 µM, a TGI (MDA-MB-435) of 32.6 µM and a TGI (MDA-N) of 42.8 µM. For the same molecule, the TGI (MOLT-4 leukemia) was over 100 µM, the TGI (NCI-H226 lung) was over 100 µM and the TGI (NCI-H23 lung) was over 100 µM. The TGI (NCI-H460 lung) was over 100 µM, the TGI (NCI-H522 lung) was over 100 µM and the TGI (NCI/ADR-RES ovarian) was over 100 µM. For the same molecule, the TGI (OVCAR-3 ovarian) was over 100 µM, the TGI (OVCAR-4 ovarian) was over 100 µM and the TGI (OVCAR-5 ovarian) was over 100 µM. The TGI (OVCAR-8 ovarian) was over 100 µM, the TGI (PC-3 prostate) was over 100 µM and the TGI (RPMI-8226 leukemia) was over 100 µM. For the same molecule, the TGI (RXF 393 renal) was over 100 µM, the TGI (SF-268 CNS) was over 100 µM and the TGI (SF-295 CNS) was over 100 µM. For the same molecule, the TGI (SF-539 CNS) was over 100 µM, the TGI (SK-MEL-2 melanoma) was over 100 µM and the TGI (SK-MEL-28 melanoma) was over 100 µM. For the same molecule, the TGI (SK-MEL-5 melanoma) was over 100 µM, the TGI (SK-OV-3 ovarian) was 84.6 µM and the TGI (SN12C renal) was over 100 µM. The TGI (SNB-19 CNS) was over 100 µM, the TGI (SNB-75 CNS) was 69 µM and the TGI (SR leukemia) was over 100 µM. It also gave a TGI (SW-620 colon) of over 100 µM, a TGI (T-47D breast) of over 100 µM and a TGI (TK-10 renal) of over 100 µM. It also gave a TGI (U251 CNS) of over 100 µM, a TGI (UACC-257 melanoma) of over 100 µM and a TGI (UACC-62 melanoma) of 58.7 µM. The TGI (UO-31 renal) was over 100 µM.

Work on `CC(=O)c1cccc(Nc2c3ccccc3nc3occc23)c1` yielded a TGI (786-0 renal) of 27.6 µM, a TGI (A498 renal) of 74.7 µM and a TGI (A549 NSCLC) of over 100 µM. It also gave a TGI (ACHN renal) of over 100 µM, a TGI (BT-549 breast) of 54.3 µM and a TGI (CAKI-1 renal) of 8.82 µM. For the same molecule, the TGI (CCRF-CEM leukemia) was 18.8 µM, the TGI (COLO 205 colon) was 29.1 µM and the TGI (DU-145 prostate) was over 100 µM. The TGI (EKVX NSCLC) was over 100 µM, the TGI (HCC-2998 colon) was 25.2 µM and the TGI (HCT-116 colon) was 18.4 µM. The TGI (HCT-15 colon) was over 100 µM, the TGI (HL-60(TB) leukemia) was 12.4 µM and the TGI (HOP-62 NSCLC) was 20.6 µM. It also gave a TGI (HOP-92 NSCLC) of 62.2 µM, a TGI (HS 578T breast) of 35.3 µM and a TGI (HT29 colon) of 8.46 µM. It also gave a TGI (IGROV1 ovarian) of 9.58 µM, a TGI (K-562 leukemia) of over 100 µM and a TGI (KM12 colon) of 52.6 µM. It also gave a TGI (LOX IMVI melanoma) of over 100 µM, a TGI (M14 melanoma) of 24.4 µM and a TGI (MALME-3M melanoma) of 27.6 µM. The TGI (MCF7 breast) was over 100 µM, the TGI (MDA-MB-231 breast) was 67.7 µM and the TGI (MDA-MB-435) was 2.85 µM. For the same molecule, the TGI (MDA-N) was over 100 µM, the TGI (MOLT-4 leukemia) was 51.6 µM and the TGI (NCI-H226 lung) was over 100 µM. It also gave a TGI (NCI-H23 lung) of 18.2 µM, a TGI (NCI-H460 lung) of over 100 µM and a TGI (NCI-H522 lung) of 4.62 µM. It also gave a TGI (NCI/ADR-RES ovarian) of 6.47 µM, a TGI (OVCAR-3 ovarian) of 5.99 µM and a TGI (OVCAR-4 ovarian) of 6.67 µM. For the same molecule, the TGI (OVCAR-5 ovarian) was over 100 µM, the TGI (OVCAR-8 ovarian) was over 100 µM and the TGI (PC-3 prostate) was over 100 µM. The TGI (RPMI-8226 leukemia) was 15.9 µM, the TGI (RXF 393 renal) was 6.73 µM and the TGI (SF-268 CNS) was over 100 µM. The TGI (SF-295 CNS) was 44 µM, the TGI (SF-539 CNS) was 7.63 µM and the TGI (SK-MEL-2 melanoma) was 11.4 µM. For the same molecule, the TGI (SK-MEL-28 melanoma) was 7.97 µM, the TGI (SK-MEL-5 melanoma) was 23 µM and the TGI (SK-OV-3 ovarian) was 36 µM. For the same molecule, the TGI (SN12C renal) was over 100 µM, the TGI (SNB-19 CNS) was over 100 µM and the TGI (SR leukemia) was over 100 µM. It also gave a TGI (T-47D breast) of 28 µM, a TGI (TK-10 renal) of 94.1 µM and a TGI (U251 CNS) of over 100 µM. It also gave a TGI (UACC-257 melanoma) of 25.5 µM, a TGI (UACC-62 melanoma) of 27.7 µM and a TGI (UO-31 renal) of over 100 µM.
